The values that follow come from patent US6613903B2, “Modulators of protein tyrosine phosphatases (PTPases)” (Novo Nordisk A/S, priority 2000, dated 2003).

The target of this experiment is T1, truncated form of PTP1 B (corresponding to the first 321 amino acids) (Homo sapiens, UniProt P18031).
T1 construct: truncated form of PTP1 B (corresponding to the first 321 amino acids); made in house; host or cells: E. coli
T1 sequence (P18031 1-321): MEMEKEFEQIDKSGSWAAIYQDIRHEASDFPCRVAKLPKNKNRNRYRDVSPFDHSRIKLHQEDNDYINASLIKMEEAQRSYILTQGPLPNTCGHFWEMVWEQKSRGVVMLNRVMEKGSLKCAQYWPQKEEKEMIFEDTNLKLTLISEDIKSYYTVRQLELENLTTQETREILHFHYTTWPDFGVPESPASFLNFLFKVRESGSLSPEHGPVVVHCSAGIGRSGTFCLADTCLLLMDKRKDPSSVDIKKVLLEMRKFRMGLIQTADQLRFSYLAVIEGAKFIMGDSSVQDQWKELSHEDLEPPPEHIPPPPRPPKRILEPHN
In words: Inhibition of PTP1B, p-nitrophenyl phosphate as substrate, enzyme kinetics. In kind it is biochemical. The following applies: truncated PTP1B expressed in E. coli; substrate p-nitrophenyl phosphate 0.16 to 10 mM; sodium acetate pH 5.5; 25° C. for 60 minutes; absorbance at 405 nm. The protocol:
The compounds are evaluated for biological activity with a truncated form of PTP1 B (corresponding to the first 321 amino acids), which was expressed in E. coli and purified to apparent homogeneity using published procedures well-known to those skilled in the art. The enzyme reactions are carried out using standard conditions essentially as described by Burke et al. (Biochemistry 35; 15989-15996 (1996)). The assay conditions are as follows. Appropriate concentrations of the compounds of the invention are added to the reaction mixtures containing different concentrations of the substrate, p-nitrophenyl phosphate (range: 0.16 to 10 mM—final assay concentration). The buffer used was 100 mM sodium acetate pH 5.5, 50 mM sodium chloride, 0.1% (w/v) bovine serum albumin and 5 mM dithiothreitol (total volume […]). The reaction was started by addition of the enzyme and carried out in microtiter plates at 25° C. for 60 minutes. The reactions are stopped by addition of NaOH. The enzyme activity was determined by measurement of the absorbance at 405 nm with appropriate corrections for absorbance at 405 nm of the compounds and p-nitrophenyl phosphate. The data are analyzed using nonlinear regression fit to classical Michaelis Menten enzyme kinetic models. Inhibition is expressed as Ki values in μM.
As usually defined, the Ki is the dissociation constant of the complex between target and ligand, obtained from inhibition or displacement. Read a low Ki as a stronger hold on the target. `O=C(O)C(=O)Nc1sc2c(c1C(=O)O)CCNC2CNC(=O)c1ccccc1` (centres unmarked) [Example 1, 7-(Benzoylamino-methyl)-2-(oxalyl-amino)-4,5,6,7-tetrahydro-thieno[2,3-c]pyridine-3-carboxylic acid]: the affinity, expressed as Ki, was 0.49 µM. In other words, the sub-micromolar range.
To `O=C(O)C(=O)Nc1sc2c(c1C(=O)O)CCNC2CNC(=O)c1ccc(NC(=O)c2ccccc2)cc1` (centres unmarked) [Example 6, 7-((4-Benzoylamino-benzoylamino)methyl)-2-(oxalyl-amino)-4,5,6,7-tetrahydro-thieno[2,3-c]pyridine-3-carboxylic acid] belongs 0.33 µM; to `O=C(CCc1ccc(-c2ccccc2)cc1)NCC1NCCc2c1sc(NC(=O)C(=O)O)c2C(=O)O` (centres unmarked) [Example 9, 7-((3-Biphenyl-4-yl-propionylamino)methyl)-2-(oxalyl-amino)-4,5,6,7-tetrahydro-thieno[2,3-c]-pyridine-3-carboxylic acid], 0.062 µM; to `O=C(O)C(=O)Nc1sc2c(c1C(=O)O)CCNC2CNC(=O)c1ccc(Cc2ccccc2)cc1` (centres unmarked) [Example 11, 7-((4-Benzyl-benzoylamino)methyl)-2-(oxalyl-amino)-4,5,6,7-tetrahydro-thieno[2,3-c]pyridine-3-carboxylic acid], 0.14 µM.
As for `O=C(O)C(=O)Nc1sc2c(c1C(=O)O)CCNC2CNC(=O)c1cccc2ccccc12` (centres unmarked) [Example 12, 7-(((Naphthalene-1-carbonyl)amino)methyl)-2-(oxalyl-amino)-4,5,6,7-tetrahydro-thieno[2,3-c]pyridine-3-carboxylic acid], the figure is 0.12 µM; as for `O=C(CCc1ccc2ccccc2c1)NCC1NCCc2c1sc(NC(=O)C(=O)O)c2C(=O)O` (centres unmarked) [Example 13, 7-((3-Naphthalen-2-yl-propionylamino)methyl)-2-(oxalyl-amino)-4,5,6,7-tetrahydro-thieno[2,3-c]pyridine-3-carboxylic acid], 0.07 µM; as for `O=C(O)C(=O)Nc1sc2c(c1C(=O)O)CCNC2CNC(=O)c1c(O)ccc2ccccc12` (centres unmarked) [Example 14, 7-(((2-Hydroxy-naphthalene-1-carbonyl)amino)methyl)-2-(oxalyl-amino)-4,5,6,7-tetrahydro-thieno[2,3-c]pyridine-3-carboxylic acid], 0.07 µM.
The compound `CCOc1cccc2cc(C(=O)NC[C@@H]3NCCc4c3sc(NC(=O)C(=O)O)c4C(=O)O)oc12` [Example 20, 7-(S)-(((7-Ethoxy-benzofuran-2-carbonyl)amino)methyl)-2-(oxalyl-amino)-4,5,6,7-tetrahydro-thieno[2,3-c]pyridine-3-carboxylic acid] had a Ki of 0.11 µM.
The compound `CC(=O)Nc1ccc(S(=O)(=O)NC[C@@H]2NCCc3c2sc(NC(=O)C(=O)O)c3C(=O)O)cc1` [Example 22, 7-(S)-((4-Acetylamino-benzenesulfonylamino)methyl)-2-(oxalyl-amino)-4,5,6,7-tetrahydro-thieno[2,3-c]pyridine-3-carboxylic acid] showed a Ki of 0.091 µM.
With `O=C(O)C(=O)Nc1sc2c(c1C(=O)O)CCN[C@H]2CNC(=O)c1ccc2nc[nH]c2c1` [Example 24, 7-(S)-(((3H-Benzoimidazole-5-carbonyl)amino)methyl)-2-(oxalyl-amino)-4,5,6,7-tetrahydro-thieno[2,3-c]pyridine-3-carboxylic acid], the Ki turned out to be 0.64 µM.
Take `O=C(O)C(=O)Nc1sc2c(c1C(=O)O)CCN[C@H]2CNC(=O)c1cc2cc(O)ccc2[nH]1` [Example 25, 7-(S)-(((5-Hydroxy-1H-indole-2-carbonyl)amino)methyl)-2-(oxalyl-amino)-4,5,6,7-tetrahydro-thieno[2,3-c]pyridine-3-carboxylic acid]: the Ki turned out to be 3.2 µM. This Ki lies about 5-fold higher than the previous one.
As to `O=C(O)C(=O)Nc1sc2c(c1C(=O)O)CCN[C@@H]2CNC(=O)c1cc2cc(O)ccc2[nH]1` [Example 26, 7-(R)-(((5-Hydroxy-1H-indole-2-carbonyl)amino)methyl)-2-(oxalyl-amino)-4,5,6,7-tetrahydro-thieno[2,3-c]pyridine-3-carboxylic acid], the Ki amounted to 2.6 µM.
The compound `O=C(O)C(=O)Nc1sc2c(c1C(=O)O)CCN[C@@H]2CNC(=O)c1cn(Cc2ccccc2)c2ccccc12` [Example 27, 7-(R)-(((1-Benzyl-1H-indole-3-carbonyl)amino)methyl)-2-(oxalyl-amino)-4,5,6,7-tetrahydro-thieno[2,3-c]pyridine-3-carboxylic acid] gave a Ki of 2.1 µM.
As for `O=C(O)C(=O)Nc1sc2c(c1C(=O)O)CCN[C@H]2CNCc1ccc(Oc2ccccc2)cc1` [Example 28, 2-(Oxalyl-amino)-7-(S)-((4-phenoxy-benzylamino)methyl)-4,5,6,7-tetrahydro-thieno[2,3-c]pyridine-3-carboxylic acid], the figure is 0.058 µM; as for `O=C(NC[C@@H]1NCCc2c1sc(NC(=O)C(=O)O)c2C(=O)O)Nc1ccc(Oc2ccccc2)cc1` [Example 29, 2-(Oxalyl-amino)-7-(S)-(3-(4-phenoxy-phenyl)ureidomethyl)-4,5,6,7-tetrahydro-thieno[2,3-c]pyridine-3-carboxylic acid], 0.031 µM.
In the case of `O=C(O)C(=O)Nc1sc2c(c1C(=O)O)CCNC2CNC(=O)c1cn(Cc2ccccc2)c2ccccc12` (centres unmarked) [Example 30, 7-(((1-Benzyl-1H-indole-3-carbonyl)amino)methyl)-2-(oxalyl-amino)-4,5,6,7-tetrahydro-thieno[2,3-c]pyridine-3-carboxylic acid], the Ki was determined as 0.07 µM. This Ki is about 2.3-fold higher than that of the compound before.
Regarding `CC(=O)NCC1NCCc2c1sc(NC(=O)C(=O)O)c2C(=O)O` (centres unmarked) [Example 31, 7-(Acetylamino-methyl)-2-(oxalyl-amino)-4,5,6,7-tetrahydro-thieno[2,3-c]pyridine-3-carboxylic acid], affinity was put at a Ki of 1.1 µM.
`CC(C)(N)CCCC(=O)NCC1NCCc2c1sc(NC(=O)C(=O)O)c2C(=O)O` (centres unmarked) [Example 32, 7-((5-Amino-5-methyl-hexanoylamino)methyl)-2-(oxalyl-amino)-4,5,6,7-tetrahydro-thieno[2,3-c]pyridine-3-carboxylic acid] registered a Ki of 0.078 µM.
As for `O=C(O)C(=O)Nc1sc2c(c1C(=O)O)CCN[C@H]2CNC(=O)c1cc2cc(F)ccc2[nH]1` [Example 33, 7-(S)-(((5-Fluoro-1H-indole-2-carbonyl)amino)methyl)-2-(oxalyl-amino)-4,5,6,7-tetrahydro-thieno[2,3-c]pyridine-3-carboxylic acid], the figure is 0.018 µM.
As for `CC(=O)OCOC(=O)Oc1ccc2[nH]c(C(=O)NC[C@H]3c4sc(NC(=O)C(=O)O)c(C(=O)O)c4CCN3C(=O)OCOC(C)=O)cc2c1` [Example 35, 7-(S)-(((5-Acetoxymethoxycarbonyloxy-1H-indole-2-carbonyl)amino)methyl)-2-(oxalyl-amino)-4,7-dihydro-5H-thieno[2,3-c]pyridine-3,6-dicarboxylic acid 6-acetoxymethyl ester], the figure is 0.032 µM; as for `O=C(O)C(=O)Nc1sc2c(c1C(=O)O)CCN[C@H]2CNC(=O)c1ccc(-c2cccc(-c3ccccc3)c2)cc1` [Example 36], 0.042 µM; as for `O=C(O)C(=O)Nc1sc2c(c1C(=O)O)CCN[C@H]2CNC(=O)c1cc2ccccc2[nH]1` [Example 37, 7-(S)-(((1H-Indole-2-carbonyl)amino)methyl)-2-(oxalyl-amino)-4,5,6,7-tetrahydro-thieno[2,3-c]pyridine-3-carboxylic acid], 0.031 µM.
Compound `CCOC(=O)C(=O)Nc1sc2c(c1C(=O)O)CCNC2CNC(=O)c1cc2cc(O)ccc2[nH]1` (centres unmarked) [Example 38, 2-(Ethoxyoxalyl-amino)-7-(((5-hydroxy-1H-indole-2-carbonyl)amino)methyl)-4,5,6,7-tetrahydro-thieno[2,3-c]pyridine-3-carboxylic acid] registered a Ki of 0.063 µM. This Ki is about 2-fold higher than that of the compound before.
`CCOC(=O)c1c(NC(=O)C(=O)OCC(C)(C)C)sc2c1CCNC2CNC(=O)c1cc2cc(O)ccc2[nH]1` (centres unmarked) [Example 40, 2-((2,2-Dimethyl-propoxyoxalyl)amino)-7-(((5-hydroxy-1H-indole-2-carbonyl)-amino)methyl)-4,5,6,7-tetrahydro-thieno[2,3-c]pyridine-3-carboxylic acid ethyl ester] gave a Ki of 1.3 µM. Compared with the last compound, the Ki is about 21-fold higher.
Turning to `CCOC(=O)c1c(NC(=O)C(=O)O)sc2c1CCNC2CNC(=O)c1cc2cc(O)ccc2[nH]1` (centres unmarked) [Example 41, 7-(((5-Hydroxy-1H-indole-2-carbonyl)amino)methyl)-2-(oxalyl-amino)-4,7-dihydro-5H-thieno[2,3-c]pyridine-3-carboxylic acid ethyl ester], the Ki is 0.9 µM.
The compound `CCOC(=O)N1CCc2c(sc(NC(=O)C(=O)O)c2C(=O)O)C1CNC(=O)c1cc2cc(O)ccc2[nH]1` (centres unmarked) [Example 42, 7-(((5-Hydroxy-1H-indole-2-carbonyl)amino)methyl)-2-(oxalyl-amino)-4,7-dihydro-5H-thieno[2,3-c]pyridine-3,6-dicarboxylic acid 6-ethyl ester] registered a Ki of 0.12 µM.
